Data: patent US20220380430A1, “Non-Transgenic Functional Rescue of Neuropeptides” (Worcester Polytechnic Institute, priority 2021, published 2022)
No end group written: not given here.

Test system: ins-6 lof worms
Assay: NaCl chemotaxis assay after rescue-by-feeding
Assay type: in vivo, C. elegans
Settings: ins-6 mutants; 750 mM NaCl
Description: All animals were maintained on bacterial lawns of OP50 E. coli, at 20° C., on NGM agar plates until the start of experiments. Mutant or control animals were transferred onto lawns of DH5α E. coli expressing either scramble peptide or the rescue peptide-of-interest on NGM plates containing […] AMP and 1 mM IPTG. Animals were reared on the peptide-expressing lawns for at least 48 hours at 20° C. before assaying for rescue of mutant phenotype at the appropriate developmental stage.
A salt chemotaxis assay was performed as previously described in Leinwand, S. G. & Chalasani, S. H. Nature neuroscience 16, 1461-1467 (2013); Bargmann, C. I. & Horvitz, H. R. Neuron 7, 729-742 (1991) to test the functionality of ins-6 after rescue-by-feeding. Wild-type (N2) and ins-6 worms were fed either scramble or INS-6 peptide passing 4-6 L4 larval onto an NGM plate containing […] AMP and 1 mM IPTG with 75 μL of peptide OD600=1.0. These worms were grown at 20° C. for about 4 days until the progeny of the initial L4 worms were young adults.
The day prior to testing, a thin, 10 mL layer of agar was added to 10 cm petri dishes to generate a 10 cm Chemotaxis Plates (5 mM KPO4 (pH 6.0), 1 μM MgSO4, 1 μM CaCl2), 20 g/L agar, and 8 g/L Difco Nutrient Broth). To prepare the “high salt” plates, 750 mM NaCl was added prior to plate pouring. The high salt plate were stored at 4° C. for up to one month, while the Chemotaxis Plates were made one day prior to testing. To create the high and low salt plugs, the back end of a Pasteur pipette was used to punch a 5 mm plug out of each plate. These 2 plugs were placed on opposite edges of the plate. A 10 mm radius was be drawn around the location of the plugs (FIG. 1). Plates were stored, lightly covered, overnight at room temperature (˜20° C., <40% humidity). […]
Young adult hermaphrodites are tested in the Chemotaxis Assay with no more than three replicates per day, over a minimum of three days, with 100-200 worms/assay plate. The […] Chemotaxis Index (CI) was calculated as follows: […]

## NSKLHRGGGRSRTSGSTGSMASHARGSPGLQ-NH2 [SCRAMBLE, scramble control peptide expressed in E. coli DH5α, negative control, reference compound]
  Chemotaxis Index: less than 0.4
